We go through 19 compounds from patent US12479887B2, “Inhibitors for protein n-terminal methyltransferase and uses thereof” (Purdue Research Foundation, priority 2018, dated 2025).

What is called IC50 is the concentration needed to halve the response being measured. A high value points to a need for much substance.

Molecules are shown by their SMILES. Non-standard residues stand in square brackets, D forms with d. Residues, ends and D or L forms follow the SMILES beside them. *: point of attachment. Acetyl(1-naphthyl) = O=C(Cc1cccc2ccccc12)*; dHpg = N[C@@H](C(=O)O)c1ccc(O)cc1; Hpg = N[C@H](C(=O)O)c1ccc(O)cc1; Pra = C#CC[C@H](N)C(=O)O; X1 = O=C(Cc1ccc(O)cc1)*; ClAc = O=C(CCl)*

Sequence of N-terminal methyltransferase1 (NTMT1) (Q9BV86 1-222): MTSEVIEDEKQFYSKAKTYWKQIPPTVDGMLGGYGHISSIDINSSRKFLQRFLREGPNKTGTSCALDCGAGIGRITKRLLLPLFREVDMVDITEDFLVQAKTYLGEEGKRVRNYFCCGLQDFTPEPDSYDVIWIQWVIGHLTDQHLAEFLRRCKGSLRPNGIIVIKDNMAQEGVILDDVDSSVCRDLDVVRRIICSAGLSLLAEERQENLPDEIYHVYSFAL

The first experiment addresses N-terminal methyltransferase1 (NTMT1) (Homo sapiens (Human), UniProt Q9BV86). Nature of the experiment: NTMT1 inhibition IC50, SAH hydrolase-coupled fluorescence assay. It counts as biochemical.
Settings: not given
The protocol:
The inhibitors ranging in concentration from (2 μL of 0.14 μM-1 mM) and following a three-fold dilution were incubated with 0.2 μM NTMT1 with a reaction mixture which was added in the following order: H2O, 10× Tris-HCl Buffer (2 μL of 250 mM Tris pH 7.4, 100 mM NaCl, and 500 mM KCl), SAH hydrolase (1 μL of 100 μM), SAM (0.2 μL of 10 mM), NTMT1 (1 μL of 4 μM) and ThioGlo1 (0.2 μL of 1.5 mM DMSO solution). After 10 mins of incubation at 37° C., the reaction was initiated with 1 μM of GPKRIA. Fluorescence intensity was monitored using a BMG ClarioStar microplate reader (Ex=380 nm, Em=510 nm) at 37° C. for 15 min. The rates were fit to the log[inhibitor] vs response model using least squares nonlinear regression through GraphPad Prism 7 software. All experiments were performed in triplicate.
With `N=C(N)NCCC[C@H](NC(=O)[C@H](CCCCN)NC(=O)[C@@H]1CCCN1C(=O)Cc1cccc2ccccc12)C(N)=O` [Compound 1, (S)—N—((S)-6-amino-1-(((S)-1-amino-5-guanidino-1-oxopentan-2-yl)amino)-1-oxohexan-2-yl)-1-(2-(naphthalen-1-yl)acetyl)pyrrolidine-2-carboxamide], the half-maximal inhibitory concentration (IC50) worked out at 400 ± 30 nM. For the compound `N=C(N)NCCC[C@H](NC(=O)[C@H](CCCCN)NC(=O)[C@@H]1CCCN1C(=O)/C=C/c1ccc(O)cc1)C(N)=O` [Compound 17, (S)—N—((S)-6-amino-1-(((S)-1-amino-5-guanidino-1-oxopentan-2-yl)amino)-1-oxohexan-2-yl)-1-((E)-3-(4-hydroxyphenyl)acryloyl)pyrrolidine-2-carboxamide], inhibition was half-maximal at 2500 nM (IC50). This IC50 is about 6.2-fold higher than that of the compound before.

Compound `N=C(N)NCCC[C@H](NC(=O)[C@H](CCCCN)NC(=O)[C@@H]1CCCN1C(=O)[C@H](NC(=O)Cc1ccc(O)cc1)c1ccc(O)cc1)C(N)=O` [Compound 21, (S)—N—((S)-6-amino-1-(((S)-1-amino-5-guanidino-1-oxopentan-2-yl)amino)-1-oxohexan-2-yl)-1-((R)-2-(4-hydroxyphenyl)-2-(2-(4-hydroxyphenyl)acetamido)acetyl)pyrrolidine-2-carboxamide] (X1-[dHpg]PKR-NH2) yielded an IC50 greater than 100000 nM.

For the compound `N=C(N)NCCC[C@H](NC(=O)[C@H](CCCCN)NC(=O)[C@@H]1CCCN1C(=O)[C@@H](NC(=O)Cc1ccc(O)cc1)c1ccc(O)cc1)C(N)=O` [Compound 22, (S)—N—((S)-6-amino-1-(((S)-1-amino-5-guanidino-1-oxopentan-2-yl)amino)-1-oxohexan-2-yl)-1-((S)-2-(4-hydroxyphenyl)-2-(2-(4-hydroxyphenyl)acetamido)acetyl)pyrrolidine-2-carboxamide] (X1-[Hpg]PKR-NH2), the IC50 was greater than 100000 nM. Same read-out and setting: with `N=C(N)NCCC[C@H](NC(=O)[C@H](CCCCN)NC(=O)[C@@H]1CCCN1C(=O)[C@H](NCCc1ccc(O)cc1)c1ccc(O)cc1)C(N)=O` [Compound 23, (S)—N—((S)-6-amino-1-(((S)-1-amino-5-guanidino-1-oxopentan-2-yl)amino)-1-oxohexan-2-yl)-1-((R)-2-((4-hydroxyphenethyl)amino)-2-(4-hydroxyphenyl)acetyl)pyrrolidine-2-carboxamide] the figure was greater than 100000 nM.

`CC[C@H](C)[C@H](NC(=O)[C@H](CCCNC(=N)N)NC(=O)[C@H](CCCCN)NC(=O)[C@@H]1CCCN1C(=O)Cc1cccc2ccccc12)C(N)=O` [Compound 24, (S)—N—((S)-6-amino-1-(((S)-1-(((2S,3S)-1-amino-3-methyl-1-oxopentan-2-yl)amino)-5-guanidino-1-oxopentan-2-yl)amino)-1-oxohexan-2-yl)-1-(2-(naphthalen-1-yl)acetyl)pyrrolidine-2-carboxamide] ({Acetyl(1-naphthyl)}-PKRI-NH2) yielded an IC50 of 60 nM. This counts as double-digit nanomolar. The same measure, in the same setting: then `N=C(N)NCCC[C@H](NC(=O)[C@H](CCCNC(=N)N)NC(=O)[C@H](CCCCN)NC(=O)[C@@H]1CCCN1C(=O)Cc1cccc2ccccc12)C(N)=O` [Compound 25, (S)—N—((S)-6-amino-1-(((S)-1-(((S)-1-amino-5-guanidino-1-oxopentan-2-yl)amino)-5-guanidino-1-oxopentan-2-yl)amino)-1-oxohexan-2-yl)-1-(2-(naphthalen-1-yl)acetyl)pyrrolidine-2-carboxamide] ({Acetyl(1-naphthyl)}-PKRR-NH2), with 40 nM; and `C#CC[C@H](NC(=O)[C@H](CCCNC(=N)N)NC(=O)[C@H](CCCCN)NC(=O)[C@@H]1CCCN1C(=O)Cc1cccc2ccccc12)C(N)=O` [Compound 26, (S)—N—((S)-6-amino-1-(((S)-1-(((S)-1-amino-1-oxopent-4-yn-2-yl)amino)-5-guanidino-1-oxopentan-2-yl)amino)-1-oxohexan-2-yl)-1-(2-(naphthalen-1-yl)acetyl)pyrrolidine-2-carboxamide] ({Acetyl(1-naphthyl)}-PKR[Pra]-NH2), with 90 nM; and `N=C(N)NCCC[C@H](NC(=O)[C@H](CCCCN)NC(=O)[C@@H]1CCCN1C(=O)Cc1cccc2ccccc12)C(=O)N[C@@H](Cc1c[nH]c2ccccc12)C(N)=O` [Compound 43] ({Acetyl(1-naphthyl)}-PKRW-NH2), with 95 ± 26 nM.

In turn, `N=C(N)NCCC[C@H](NC(=O)[C@H](CCCCN)NC(=O)[C@@H]1CCCN1C(=O)Cc1cccc2ccccc12)C(=O)N[C@@H](Cc1ccc(O)cc1)C(N)=O` [Compound 44, (S)—N—((S)-6-amino-1-(((S)-1-(((S)-1-amino-3-(4-hydroxyphenyl)-1-oxopropan-2-yl)amino)-5-guanidino-1-oxopentan-2-yl)amino)-1-oxohexan-2-yl)-1-(2-(naphthalen-1-yl)acetyl)pyrrolidine-2-carboxamide] ({Acetyl(1-naphthyl)}-PKRY-NH2) returned an IC50 of 79 ± 13 nM.

As to `N=C(N)NCCC[C@H](NC(=O)[C@H](CCCCN)NC(=O)[C@@H]1CCCN1C(=O)[C@@H](NCCc1ccc(O)cc1)c1ccc(O)cc1)C(N)=O` [Compound 47, (S)—N—((S)-6-amino-1-(((S)-1-amino-5-guanidino-1-oxopentan-2-yl)amino)-1-oxohexan-2-yl)-1-((S)-2-((4-hydroxyphenethyl)amino)-2-(4-hydroxyphenyl)acetyl)pyrrolidine-2-carboxamide], the IC50 is greater than 100000 nM.

The same experiment, now with this note: 0.2 μM NTMT1, 1 μM GPKRIA peptide substrate, 37° C., ThioGlo1 fluorescence.
For the compound `N=C(N)NCCC[C@H](NC(=O)[C@H](CCCCN)NC(=O)[C@@H]1CCCN1C(=O)Cc1cccc2[nH]ccc12)C(N)=O` [Compound 4, (S)-1-(2-(1H-indol-4-yl)acetyl)-N—((S)-6-amino-1-(((S)-1-amino-5-guanidino-1-oxopentan-2-yl)amino)-1-oxohexan-2-yl)pyrrolidine-2-carboxamide], the IC50 is 160 ± 70 nM.

As to `NCCCC[C@H](NC(=O)CN(C(=O)Cc1cccc2ccccc12)C1CCCC1)C(N)=O` [Compound 10, (S)-6-amino-2-(2-(N-cyclopentyl-2-(naphthalen-1-yl)acetamido)acetamido)hexanamide], the IC50 was greater than 100000 nM. Still for that read-out and setting: with `NCCCC[C@H](NC(=O)c1cn(CC(=O)Nc2ccccc2)nn1)C(N)=O` [Compound 11, (S)—N-(1,6-diamino-1-oxohexan-2-yl)-1-(2-oxo-2-(phenylamino)ethyl)-1H-1,2,3-triazole-4-carboxamide] the figure was greater than 100000 nM; with `N=C(N)NCCC[C@H](NC(=O)[C@H](CCCCN)NC(=O)[C@@H]1CCCN1C(=O)[C@@H]1CCCN1C(=O)CCl)C(=O)O` [Compound 12, (2-chloroacetyl)-L-prolyl-L-prolyl-L-lysyl-L-arginine] (ClAc-PPKR-OH), 16000 ± 5900 nM; with `N=C(N)NCCC[C@H](NC(=O)[C@H](CCCCN)NC(=O)[C@@H]1CCCN1C(=O)Cc1ccc(CO)cc1)C(N)=O` [Compound 18, (S)—N—((S)-6-amino-1-(((S)-1-amino-5-guanidino-1-oxopentan-2-yl)amino)-1-oxohexan-2-yl)-1-(2-(4-(hydroxymethyl)phenyl)acetyl)pyrrolidine-2-carboxamide], 1500 nM. For `N=C(N)NCCC[C@H](NC(=O)[C@H](CCCNC(=N)N)NC(=O)[C@H](CCCNC(=N)N)NC(=O)[C@H](CCC(N)=O)NC(=O)[C@H](CCCNC(=N)N)NC(=O)[C@H](CCCNC(=N)N)NC(=O)[C@H](CCCCN)NC(=O)[C@H](CCCCN)NC(=O)[C@H](CCCNC(=N)N)NC(=O)CNC(=O)[C@H](CCCNC(=N)N)NC(=O)[C@H](CCCCN)NC(=O)[C@@H]1CCCN1C(=O)Cc1ccc(O)cc1)C(=O)O` [Compound 32, (2-(4-hydroxyphenyl)acetyl)-L-prolyl-L-lysyl-L-arginylglycyl-L-arginyl-L-lysyl-L-lysyl-L-arginyl-L-arginyl-L-glutaminyl-L-arginyl-L-arginyl-L-arginine], the IC50 was 230 ± 30 nM. Compared with the last compound, the IC50 is about 6.5-fold lower. On to `N=C(N)NCCC[C@H](NC(=O)[C@H](CCCNC(=N)N)NC(=O)[C@H](CCCNC(=N)N)NC(=O)[C@H](CCCNC(=N)N)NC(=O)[C@H](CCCNC(=N)N)NC(=O)[C@H](CCCNC(=N)N)NC(=O)[C@H](CCCCN)NC(=O)[C@@H]1CCCN1C(=O)Cc1cccc2ccccc12)C(N)=O` [Compound 34, (S)—N-((6S,9S,12S,15S,18S,21S,24S)-1,28-diamino-6-carbamoyl-9,12,15,18,21-pentakis(3-guanidinopropyl)-1-imino-8,11,14,17,20,23-hexaoxo-2,7,10,13,16,19,22-heptaazaoctacosan-24-yl)-1-(2-(naphthalen-1-yl)acetyl)pyrrolidine-2-carboxamide] ({Acetyl(1-naphthyl)}-PKRRRRRR-NH2), for which the IC50 amounted to 68 nM.

`NCCCC[C@H](NC(=O)[C@@H]1CCCN1C(=O)Cc1cccc2ccccc12)C(=O)N[C@@H](CCC(=O)O)C(N)=O` [Compound 39, (S)-5-amino-4-((S)-6-amino-2-((S)-1-(2-(naphthalen-1-yl)acetyl)pyrrolidine-2-carboxamido)hexanamido)-5-oxopentanoic acid] registered an IC50 of 5760 nM. Compared with the last compound, the IC50 is about 85-fold higher.
